Data from patent US7026315B1, “Fungicide mixtures which are based on derivatives of morpholine or piperidine and derivatives oxime ether” (BASF Aktiengesellschaft, priority 1998, dated 2006).

Tested on: mildew of wheat (Erysiphe graminis forma specialis tritici)
Test: Activity against mildew of wheat (protective spray on potted wheat seedlings)
Assay type: in vivo
Conditions: wheat seedlings cv. Kanzler, inoculated 24 h after spraying, evaluated after 7 days
Method: The active compounds, separately or together, are formulated as a 10% emulsion in a mixture of 63% by weight of cyclohexanone and 27% by weight of emulsifier, and diluted with water to the desired concentration.
Evaluation is carried out by determining the infected leaf areas in percent. These percentages are converted into efficacies. The efficacy (W) is calculated as follows using Abbot's formula: W=(1−α/β)·100 α corresponds to the fungal infection of the treated plants in % and β corresponds to the fungal infection of the untreated (control) plants in %
An efficacy of 0 means that the infection level of the treated plants corresponds to that of the untreated control plants; an efficacy of 100 means that the treated plants were not infected.
The expected efficacies of the mixtures of the active compounds were determined using Colby's formula [F. S. Colby, Weeds 15, 20–22 (1967)] and compared with the observed efficacies. • Colby's formula: E=x+y−x·y/100 E expected efficacy, expressed in % of the untreated control, when using the mixture of the active compounds A and B at the concentrations a and b x efficacy, expressed in % of the untreated control, when using active compound A at a concentration of a y efficacy, expressed in % of the untreated control, when using active compound B at a concentration of b.
Leaves of potted wheat seedlings cv. “Kanzler” were sprayed to runoff point with an aqueous preparation of active compound which was prepared from a stock solution comprising 10% of active compound, 63% of cyclohexanone and 27% of emulsifier and, 24 h after the spray coating had dried on, dusted with spores of mildew of wheat (Erysiphe graminis forma specialis tritici). The test plants were subsequently placed in climatized chambers at 20–24° C. and 60–90% relative atmospheric humidity for 7 days. The extent of the development of the infection on the leaves was then determined visually.
The visually determined values for the percentage of infected leaf areas were converted into efficacies as % of the untreated control. An efficacy of 0 means the same degree of infection as in the untreated control, an efficacy of 100 means 0% infection. The expected efficacies for active compound combinations were determined using Colby's formula (Colby, S. R. “Calculating synergistic and antagonistic responses of herbicide combinations”, Weeds, 15 (1967), 20–22) and compared with the observed efficacies.

| Compound | Efficacy in % of the untreated control (0.25 ppm) | Efficacy in % of the untreated control (1 ppm) |
| --- | --- | --- |
| CC(Cc1ccc(C(C)(C)C)cc1)CN1C[C@@H](C)O[C@@H](C)C1 (stereo partly shown) [Compound I.a, Fenpropimorph] | 55% |  |
| CC(Cc1ccc(C(C)(C)C)cc1)CN1CCCCC1 (stereo not shown) [Compound I.b, Fenpropidin] | 55% |  |
| CCCCCCCCCCCCCN1CC(C)OC(C)C1 (stereo not shown) [Compound I.c, Tridemorph] | 0% | 0% |
